One experiment deals with BRD4 (BDI-BDII_K57-K550) (Homo sapiens, UniProt O60885). Kind of experiment: TR-FRET bromodomain binding assay. The settings on record: His-tagged tandem bromodomain, Alexa647-labeled probe; Ki calculated from IC50s, probe Kd and probe concentration. The procedure: A time-resolved fluorescence resonance energy transfer (TR-FRET) assay was used to determine the affinities of compounds of the Examples listed in Table 1 for the tandem domain of bromodomain BRD4. […] An Alexa647-labeled BET-inhibitor was used as the fluorescent probe in the assay.
TR-FRET data were normalized to the means of 24 no-compound controls (“high”) and 8 controls containing 1 μM un-labeled probe (“low”). Percent inhibition was plotted as a function of compound concentration and the data were fit with the 4 parameter logistic equation to obtain IC50s. Inhibition constants (Ki) were calculated from the IC50s, probe Kd and probe concentration. Typical Z′ values were between 0.65 and 0.75.

In experiment [1] the test system is breast cancer cell line MX-1. Put plainly: MX-1 cell line proliferation assay (3-day, Cell Titer Glo). It counts as cell-based. The settings on record: Homo sapiens, MX1, MX-1 cells, 72 hours, read-out: Cellular proliferation: EC50. As for the experimental part: The impact of compounds of the Examples on cancer cell proliferation was determined using the breast cancer cell line MX-1 (ATCC) in a 3-day proliferation assay and the data are reported in Table 1. […] For compound testing, MX-1 cells were plated in 96-well black bottom plates at a density of 5000 cells/well in 90 μL of culture media and incubated at 37° overnight to allow cell adhesion and spreading. Compound dilution series were prepared in DMSO via a 3-fold serial dilution from 3 mM to 0.1 μM. The DMSO dilution series were then diluted 1:100 in phosphate buffered saline, and 10 μL of the resulted solution were added to the appropriate wells of the MX-1 cell plate. The final compound concentrations in the wells were 3, 1, 0.3, 0.1, 0.03, 0.01, 0.003, 0.001, 0.0003, and 0.0001 μM, or 1, 0.3, 0.1, 0.03, 0.01, 0.003, 0.001, 0.0003, 0.0001, and 0.00003 μM.
Luminescence readings from the Cell Titer Glo assay were normalized to the DMSO treated cells and analyzed using the GraphPad Prism software with sigmoidal curve fitting to obtain EC50s.
(Cellular ATP, detected with luciferase, serves as a proxy for viable cell number.)

Our source for the Ki and EC50 values is patent US9994581B2, “Bromodomain inhibitors” (AbbVie Inc., priority 2013, dated 2018).

Broadly, the Ki is the equilibrium dissociation constant of an inhibitor or competing ligand from its target. Take `CCS(=O)(=O)Nc1ccc2c(c1)-c1cn(C)c(=O)cc1OCCN(S(=O)(=O)NC(C)=O)Cc1cc(Cl)ccc1O2` [Example B-16, N-({11-chloro-17-[(ethylsulfonyl)amino]-2-methyl-3-oxo-2,3,6,7-tetrahydrodibenzo[f,i]pyrido[3,4-k][1,8,4]dioxazacyclododecin-8(9H)-yl}sulfonyl)acetamide]: the Ki on BRD4 (BDI-BDII_K57-K550) is 1.28 nM. Further, the EC50 in experiment [1] is more than 1000 nM.
Consider `Cn1cc2c(cc1=O)OCCCCc1cc(OC(F)(F)F)ccc1Oc1ccc(NS(C)(=O)=O)cc1-2` [Example A-30, N-[2-methyl-3-oxo-11-(trifluoromethoxy)-2,3,6,7,8,9-hexahydrodibenzo[4,5:7,8][1,6]dioxacyclododecino[3,2-c]pyridin-17-yl]methanesulfonamide], for which the Ki at BRD4 (BDI-BDII_K57-K550) was 1.15 nM. Further, in experiment [1], the EC50 was determined as 8.77 nM.
For the molecule `Cn1cc2c(cc1=O)OCCCCc1cc(F)ccc1Oc1ccc(NS(C)(=O)=O)cc1-2` [Example A-50, N-(11-fluoro-2-methyl-3-oxo-2,3,6,7,8,9-hexahydrodibenzo[4,5:7,8][1,6]dioxacyclododecino[3,2-c]pyridin-17-yl)methanesulfonamide], the Ki at BRD4 (BDI-BDII_K57-K550) was 2.24 nM. For the same molecule, the EC50 in experiment [1] was determined as 3.72 nM.
The like results for `CCS(=O)(=O)Nc1ccc2c(c1)-c1cn(C)c(=O)cc1OCCCCc1ccncc1O2` [Example A-26, N-(2-methyl-3-oxo-2,3,6,7,8,9-hexahydrobenzo[4,5][1,6]dioxacyclododecino[3,2-c:7,8-c′]dipyridin-17-yl)ethanesulfonamide] were, in that order, 2.01 nM and 14.9 nM.
Consider `CCS(=O)(=O)c1ccc2c(c1)-c1cn(C)c(=O)cc1OCCCCc1ccc(Cl)cc1O2` [Example A-25, 12-chloro-17-(ethylsulfonyl)-2-methyl-6,7,8,9-tetrahydrodibenzo[4,5:7,8][1,6]dioxacyclododecino[3,2-c]pyridin-3(2H)-one], for which the Ki at BRD4 (BDI-BDII_K57-K550) is 1.29 nM. The EC50 in experiment [1] was determined as 10.8 nM.
As for `CCS(=O)(=O)c1ccc2c(c1)-c1cn(C)c(=O)cc1OCCCCc1ccc(F)cc1O2` [Example A-23, 17-(ethylsulfonyl)-12-fluoro-2-methyl-6,7,8,9-tetrahydrodibenzo[4,5:7,8][1,6]dioxacyclododecino[3,2-c]pyridin-3(2H)-one], the inhibition constant Ki on BRD4 (BDI-BDII_K57-K550) was 1.27 nM. Further, the EC50 in experiment [1] was determined as 7.86 nM.
For `CCS(=O)(=O)Nc1ccc2c(c1)-c1cn(C)c(=O)cc1OC(C)CCCc1cc(Cl)ccc1O2` (centres unmarked) [Example A-17, N-(11-chloro-2,6-dimethyl-3-oxo-2,3,6,7,8,9-hexahydrodibenzo[4,5:7,8][1,6]dioxacyclododecino[3,2-c]pyridin-17-yl)ethanesulfonamide], the Ki at BRD4 (BDI-BDII_K57-K550) is 2.25 nM. The EC50 in experiment [1] worked out at 7.82 nM.
As to `CCNC(=O)N1CCOc2cc(=O)n(C)cc2-c2cc(NS(=O)(=O)CC)ccc2Oc2ccc(Cl)cc2C1` [Example B-9, 11-chloro-N-ethyl-17-[(ethylsulfonyl)amino]-2-methyl-3-oxo-2,3,6,7-tetrahydrodibenzo[f,i]pyrido[3,4-k][1,8,4]dioxazacyclododecine-8(9H)-carboxamide], on BRD4 (BDI-BDII_K57-K550), the Ki is 0.64 nM. Besides, in experiment [1], the EC50 was 47.3 nM.
On to `Cn1cc2c(cc1=O)OCCNC(=O)c1cc(Cl)ccc1Oc1ccc(N)cc1-2` [Example B-3, 17-amino-11-chloro-2-methyl-7,8-dihydrodibenzo[f,i]pyrido[3,4-k][1,8,4]dioxazacyclododecine-3,9(2H,6H)-dione], for which, at BRD4 (BDI-BDII_K57-K550), the Ki was 172 nM. Moreover, in experiment [1], the EC50 was more than 1000 nM.
With `Cn1cc2c(cc1=O)OCCCCc1ccc(Cl)cc1Oc1ccc(NS(C)(=O)=O)cc1-2` [Example A-44, N-(12-chloro-2-methyl-3-oxo-2,3,6,7,8,9-hexahydrodibenzo[4,5:7,8][1,6]dioxacyclododecino[3,2-c]pyridin-17-yl)methanesulfonamide], the Ki at BRD4 (BDI-BDII_K57-K550) is 1.22 nM. The EC50 in experiment [1] came out at 4.05 nM.
With `CCS(=O)(=O)Nc1ccc2c(c1)-c1cn(C)c(=O)cc1OCCCCc1cc(C#N)ccc1O2` [Example A-45, N-(11-cyano-2-methyl-3-oxo-2,3,6,7,8,9-hexahydrodibenzo[4,5:7,8][1,6]dioxacyclododecino[3,2-c]pyridin-17-yl)ethanesulfonamide], the Ki at BRD4 (BDI-BDII_K57-K550) is 1.84 nM. For the same molecule, in experiment [1], the EC50 is 3.82 nM.
For `CCS(=O)(=O)c1ccc2c(c1)-c1nn(C)c(=O)cc1OCCCCc1ccncc1O2` [Example A-59, 17-(ethylsulfonyl)-2-methyl-6,7,8,9-tetrahydrobenzo[4,5]pyrido[3′,4′:7,8][1,6]dioxacyclododecino[3,2-c]pyridazin-3(2H)-one] the same measures were 24.2 nM and 111 nM.
For `Cn1cc2c(cc1=O)OCCCCc1ccncc1Oc1ccc(N)cc1-2` [Example A-28, 17-amino-2-methyl-6,7,8,9-tetrahydrobenzo[4,5][1,6]dioxacyclododecino[3,2-c:7,8-c′]dipyridin-3(2H)-one], on BRD4 (BDI-BDII_K57-K550), the Ki is 85.9 nM. For the same molecule, the EC50 in experiment [1] is more than 1000 nM.
In the case of `CCS(=O)(=O)c1ccc2c(c1)-c1nn(C)c(=O)cc1OCCCCc1cc(C#N)ccc1O2` [Example A-54, 17-(ethylsulfonyl)-2-methyl-3-oxo-2,3,6,7,8,9-hexahydrodibenzo[4,5:7,8][1,6]dioxacyclododecino[3,2-c]pyridazine-11-carbonitrile], the Ki at BRD4 (BDI-BDII_K57-K550) is 19.7 nM. In experiment [1], the EC50 stood at 162 nM.
Take `Cn1cc2c(cc1=O)OCCCCc1cc(Cl)ccc1Oc1ncc(C(=O)O)cc1-2` [Example A-38, 11-chloro-2-methyl-3-oxo-2,3,6,7,8,9-hexahydrobenzo[11,12][1,6]dioxacyclododecino[2,3-b:4,5-c′]dipyridine-17-carboxylic acid]: the Ki on BRD4 (BDI-BDII_K57-K550) is 14.7 nM. The EC50 in experiment [1] was more than 1000 nM.
For the molecule `CCS(=O)(=O)Nc1ccc2c(c1)-c1cn(C)c(=O)cc1OCCN(C(=O)OC(C)(C)C)Cc1cc(Cl)ccc1O2` [Example B-10, tert-butyl 11-chloro-17-[(ethylsulfonyl)amino]-2-methyl-3-oxo-2,3,6,7-tetrahydrodibenzo[f,i]pyrido[3,4-k][1,8,4]dioxazacyclododecine-8(9H)-carboxylate], the Ki at BRD4 (BDI-BDII_K57-K550) was 1.24 nM. Moreover, the EC50 in experiment [1] came to 29.7 nM.
`CCS(=O)(=O)Nc1ccc2c(c1)-c1cn(C)c(=O)cc1OCCN(C1CCC1)Cc1cc(Cl)ccc1O2` [Example B-14, N-(11-chloro-8-cyclobutyl-2-methyl-3-oxo-2,3,6,7,8,9-hexahydrodibenzo[f,i]pyrido[3,4-k][1,8,4]dioxazacyclododecin-17-yl)ethanesulfonamide]: on BRD4 (BDI-BDII_K57-K550), the Ki was 2.14 nM. Further, the EC50 in experiment [1] worked out at 5.95 nM.
With `CCS(=O)(=O)Nc1ccc2c(c1)-c1cn(C)c(=O)cc1OCCN(C(C)=O)Cc1cc(Cl)ccc1O2` [Example B-7, N-(8-acetyl-11-chloro-2-methyl-3-oxo-2,3,6,7,8,9-hexahydrodibenzo[f,i]pyrido[3,4-k][1,8,4]dioxazacyclododecin-17-yl)ethanesulfonamide], the Ki at BRD4 (BDI-BDII_K57-K550) was 1.61 nM. For the same molecule, the EC50 in experiment [1] came to 45.4 nM.
As for `CCS(=O)(=O)c1ccc2c(c1)-c1cn(C)c(=O)cc1OCCCCc1ccncc1O2` [Example A-42, 17-(ethylsulfonyl)-2-methyl-6,7,8,9-tetrahydrobenzo[4,5][1,6]dioxacyclododecino[3,2-c:7,8-c′]dipyridin-3(2H)-one], the Ki on BRD4 (BDI-BDII_K57-K550) is 0.86 nM. In addition, in experiment [1], the EC50 came out at 10.2 nM.
The like results for `CCS(=O)(=O)Nc1cnc2c(c1)-c1cn(C)c(=O)cc1OCCCCc1cc(F)cc(F)c1O2` [Example A-35, N-(11,13-difluoro-2-methyl-3-oxo-2,3,6,7,8,9-hexahydrobenzo[11,12][1,6]dioxacyclododecino[2,3-b:4,5-c′]dipyridin-17-yl)ethanesulfonamide] were, in that order, 0.68 nM and 4.18 nM.
Regarding `Cn1cc2c(cc1=O)OCCCCc1cc(F)cc(F)c1Oc1ccc(S(=O)(=O)C3CC3)cc1-2` [Example A-21, 17-(cyclopropylsulfonyl)-11,13-difluoro-2-methyl-6,7,8,9-tetrahydrodibenzo[4,5:7,8][1,6]dioxacyclododecino[3,2-c]pyridin-3(2H)-one], the Ki on BRD4 (BDI-BDII_K57-K550) is 0.88 nM. Besides, the EC50 in experiment [1] came out at 5.71 nM.
Turning to `CCOC(=O)c1ccc2c(c1)-c1cn(C)c(=O)cc1OCCOCc1cc(Cl)ccc1O2` [Example B-17c, ethyl 11-chloro-2-methyl-3-oxo-3,6,7,9-tetrahydro-2H-dibenzo[6,7:9,10][1,4,8]trioxacyclododecino[11,12-c]pyridine-17-carboxylate], the inhibition constant (Ki) on BRD4 (BDI-BDII_K57-K550) was 10.7 nM. The EC50 in experiment [1] was 6.7 nM.
